In the test the target is T1, MdpL (Mucin degrading protease from Limosilactobacillus); putative O-sialoglycoprotein endopeptidase (OSGP) (Limosilactobacillus fermentum, UniProt B2GAG0).
T1 construct: gene tsaD; C-terminal Gly-Ser-Gly linker and 6xHis tag kept
T1 sequence (B2GAG0 1-344): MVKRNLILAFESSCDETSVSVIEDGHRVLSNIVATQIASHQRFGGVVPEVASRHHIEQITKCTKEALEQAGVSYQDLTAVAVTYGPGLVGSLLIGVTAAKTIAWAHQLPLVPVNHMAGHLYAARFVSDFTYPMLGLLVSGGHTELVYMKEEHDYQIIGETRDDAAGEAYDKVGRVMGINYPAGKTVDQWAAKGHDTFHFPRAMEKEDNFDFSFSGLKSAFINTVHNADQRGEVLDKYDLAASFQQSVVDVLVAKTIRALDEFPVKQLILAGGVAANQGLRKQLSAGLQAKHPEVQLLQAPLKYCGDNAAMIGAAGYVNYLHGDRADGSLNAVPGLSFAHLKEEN
Description: Etanercept hydrolysis, SDS-PAGE with densitometry. In kind it is biochemical. The settings on record: inhibitor concentration per manufacturer, not given.

In the case of `NCCc1ccc(S(=O)(=O)F)cc1` [AEBSF], the “inhibition level (%)” value was “AEBSF, ALLN, Antipain, Chymostatin, E64, Leupeptin, and Phosphoramidon completely inhibited the MdpL activity”.

As to `CC(C)C[C@H](NC(=O)[C@@H](O)[C@H](N)Cc1ccccc1)C(=O)O` [Bestatin], the “inhibition level (%)” value was “Bestatin, and PMSF had a moderate inhibitory effect”.

In the case of `CC(C)C[C@H](NC(=O)[C@@H]1O[C@H]1C(=O)O)C(=O)NCCCCNC(=N)N` [E64], the “inhibition level (%)” value is “AEBSF, ALLN, Antipain, Chymostatin, E64, Leupeptin, and Phosphoramidon completely inhibited the MdpL activity”.

Consider `CC(C)C[C@H](NP(=O)(O)O[C@@H]1O[C@@H](C)[C@H](O)[C@@H](O)[C@H]1O)C(=O)N[C@@H](Cc1c[nH]c2ccccc12)C(=O)O` [Phosphoramidon], for which the “inhibition level (%)” value is “AEBSF, ALLN, Antipain, Chymostatin, E64, Leupeptin, and Phosphoramidon completely inhibited the MdpL activity”.

The values above are taken from PMC10011156, “Characterization of a highly conserved MUC5B-degrading protease, MdpL, from Limosilactobacillus fermentum” (Frontiers in Microbiology, 2023).
